Results: ChEMBL document CHEMBL1201862, “PubChem BioAssay data set” (2004)
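Each compound was tested at five concentrations against cells in 96-well plates for 48 hours. The concentration for 50% growth inhibition is given as GI50.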 The source made the active and inactive calls. Rule as the data show it: active = GI50 up to about 1.1 µM and inactive = higher.

Key:
Assay in all cases: NCI-60 cell line screen, 48 h
[1] = tested on: 786-0
[2] = tested on: BT-549
[3] = tested on: CCRF-CEM
[4] = tested on: DU-145
[5] = tested on: HCC 2998
[6] = tested on: HL-60
[7] = tested on: HOP-62
[8] = tested on: HT-29
[9] = tested on: K562
[10] = tested on: NCI-H23
[11] = tested on: OVCAR-4
[12] = tested on: OVCAR-5
[13] = tested on: PC-3
[14] = tested on: RPMI-8226
[15] = tested on: SF-539
[16] = tested on: SK-MEL-28
[17] = tested on: SK-MEL-2
[18] = tested on: SN12C
[19] = tested on: SNB-75
[20] = tested on: SR

| SMILES | GI50 [1] | GI50 [2] | GI50 [3] | GI50 [4] | GI50 [5] | GI50 [6] | GI50 [7] | GI50 [8] | GI50 [9] | GI50 [10] | GI50 [11] | GI50 [12] | GI50 [13] | GI50 [14] | GI50 [15] | GI50 [16] | GI50 [17] | GI50 [18] | GI50 [19] | GI50 [20] |
| --- | --- | --- | --- | --- | --- | --- | --- | --- | --- | --- | --- | --- | --- | --- | --- | --- | --- | --- | --- | --- |
| C/C=C/c1cc2c(cc1O)CC[C@@H]1[C@@H]2CC[C@]2(C)[C@@H](O)CC[C@@H]12 | 0.053 µM (active) | 1.6 µM (inactive) | 0.0289 µM (active) | 0.0849 µM (active) | 0.705 µM (active) | 0.0183 µM (active) | 0.0791 µM (active) | 6.34 µM (inactive) | 0.016 µM (active) | 0.133 µM (active) | 13.6 µM (inactive) | 10.8 µM (inactive) | 2.37 µM (inactive) | 0.0264 µM (active) | 0.0237 µM (active) | 1.49 µM (inactive) | 1.51 µM (inactive) | 0.08 µM (active) | 0.188 µM (active) | 0.0259 µM (active) |
| Nc1nc(Cl)cc(NCC2(CO)CC(CCc3ccccc3)C2)n1 (stereo not given) | > 71.8 µM (inactive) | > 32.8 µM (inactive) | > 58.9 µM (inactive) | > 100 µM (inactive) | > 100 µM (inactive) | 3.44 µM (inactive) | > 37.6 µM (inactive) | > 46 µM (inactive) | 1.42 µM (inactive) | 10.5 µM (inactive) | > 29.3 µM (inactive) | > 100 µM (inactive) | 73.8 µM (inactive) | 2.9 µM (inactive) | > 100 µM (inactive) | > 100 µM (inactive) | 97.9 µM (inactive) | > 100 µM (inactive) | 20.3 µM (inactive) | 1.31 µM (inactive) |
| COC(=O)/C=C/N1CC1 | > 10 µM (inactive) | > 10 µM (inactive) | > 10 µM (inactive) | > 10 µM (inactive) | 3.62 µM (inactive) | 8.63 µM (inactive) | > 10 µM (inactive) | 3.28 µM (inactive) | > 10 µM (inactive) | > 10 µM (inactive) | 4.82 µM (inactive) | 4.76 µM (inactive) | 3.12 µM (inactive) | > 10 µM (inactive) | > 10 µM (inactive) | > 10 µM (inactive) | > 10 µM (inactive) | > 10 µM (inactive) | 3.48 µM (inactive) | > 10 µM (inactive) |
| COC(=O)C1SC(SC)=NC12c1ccccc1Nc1ccccc12 (stereo not given) | 35.2 µM (inactive) | 24.7 µM (inactive) | 31.8 µM (inactive) | 36.4 µM (inactive) | 24.5 µM (inactive) | 29.5 µM (inactive) | 41.8 µM (inactive) | 30.8 µM (inactive) | 23.9 µM (inactive) | 19.8 µM (inactive) | 32.7 µM (inactive) | 54.8 µM (inactive) | 28.3 µM (inactive) | 21.2 µM (inactive) | 17.5 µM (inactive) | 21.1 µM (inactive) | 21.5 µM (inactive) | 30.7 µM (inactive) | 51.1 µM (inactive) | 17.5 µM (inactive) |
| CN1CCc2cc(N)cc3c2C1Cc1ccc2c(c1-3)OCO2 (stereo not given) | 26.9 µM (inactive) | 43 µM (inactive) | 1.97 µM (inactive) | 32.8 µM (inactive) | 19.6 µM (inactive) | 28.4 µM (inactive) | 34.8 µM (inactive) | 30.7 µM (inactive) | 27 µM (inactive) | 34 µM (inactive) | 30 µM (inactive) | 42.4 µM (inactive) | 42.7 µM (inactive) | 15.9 µM (inactive) | 33.9 µM (inactive) | 27.2 µM (inactive) | 36.1 µM (inactive) | 26.9 µM (inactive) | 31.9 µM (inactive) | 11 µM (inactive) |
| Cc1ccc(C2SC(=N)Nc3c2c(C)nn3C(=O)c2ccncc2)cc1 (stereo not given) | > 10 µM (inactive) | > 10 µM (inactive) | > 10 µM (inactive) | > 10 µM (inactive) | > 10 µM (inactive) | > 10 µM (inactive) | > 10 µM (inactive) | > 10 µM (inactive) | > 10 µM (inactive) | > 10 µM (inactive) | > 10 µM (inactive) | > 10 µM (inactive) | > 10 µM (inactive) | > 10 µM (inactive) | > 10 µM (inactive) | > 10 µM (inactive) | > 10 µM (inactive) | > 10 µM (inactive) | > 10 µM (inactive) | > 10 µM (inactive) |
